Assay results: ChEMBL document CHEMBL1201862, “PubChem BioAssay data set” (2004)
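Growth conditions: 96-well plates. Treatment: test compound, 48 hours, 5 concentrations. Analysis: linear interpolation between bracketing concentrations; unreached endpoints set to highest concentration. GI50 is the concentration that inhibits growth by half.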 Active and inactive are the calls of the source. Cut-off read from the data, not from the text of the source: active = GI50 up to about 1.1 µM and inactive = higher.

Columns and labels:
Experiment in all cases: NCI anticancer screen, dose series, 48 h
A549 = system: A549
NCI-H460 = system: NCI-H460
LOX IMVI = system: LOX IMVI
SR = system: SR
BT-549 = system: BT-549
M14 = system: M14
RXF 393 = system: RXF 393
SF-539 = system: SF-539
SF-295 = system: SF-295
EKVX = system: EKVX
IGROV-1 = system: IGROV-1
SW-620 = system: SW-620
A498 = system: A498
SN12C = system: SN12C
MOLT-4 = system: MOLT-4
MDA-N = system: MDA-N
ACHN = system: ACHN
SK-OV-3 = system: SK-OV-3
UO-31 = system: UO-31
HCT-116 = system: HCT-116
NCI/ADR-RES = system: NCI/ADR-RES
OVCAR-8 = system: OVCAR-8
HL-60 = system: HL-60
TK-10 = system: TK-10
HOP-62 = system: HOP-62
HCC 2998 = system: HCC 2998
RPMI-8226 = system: RPMI-8226
SNB-19 = system: SNB-19
SK-MEL-5 = system: SK-MEL-5
CAKI-1 = system: CAKI-1
T47D = system: T47D
MDA-MB-435 = system: MDA-MB-435
SNB-75 = system: SNB-75
HCT-15 = system: HCT-15
K562 = system: K562
KM12 = system: KM12
HOP-92 = system: HOP-92
Malme-3M = system: Malme-3M
MDA-MB-231 = system: MDA-MB-231
SK-MEL-2 = system: SK-MEL-2
HT-29 = system: HT-29
Hs-578T = system: Hs-578T
OVCAR-5 = system: OVCAR-5
SF-268 = system: SF-268
UACC-62 = system: UACC-62
OVCAR-4 = system: OVCAR-4
NCI-H226 = system: NCI-H226
MCF7 = system: MCF7
OVCAR-3 = system: OVCAR-3
PC-3 = system: PC-3
786-0 = system: 786-0
COLO 205 = system: COLO 205
CCRF-CEM = system: CCRF-CEM
U-251 = system: U-251
NCI-H522 = system: NCI-H522
NCI-H23 = system: NCI-H23
UACC-257 = system: UACC-257
SK-MEL-28 = system: SK-MEL-28
DU-145 = system: DU-145

Measured: GI50

CCOC(=O)/C=C(\C(=O)OCC)n1ccc(=O)n(Cc2cn(COCCOC(C)=O)nn2)c1=O
inactive: A549 > 76.4 µM | NCI-H460 > 38.1 µM | LOX IMVI 17.9 µM | SR 21 µM | BT-549 17.8 µM | M14 39.8 µM | RXF 393 15.7 µM | SF-539 20.1 µM | SF-295 > 100 µM | EKVX 19.9 µM | IGROV-1 21.1 µM | SW-620 9.18 µM | A498 > 54.3 µM | SN12C 20.7 µM | MOLT-4 14.9 µM | MDA-N 35.2 µM | ACHN 7.05 µM | SK-OV-3 > 100 µM | UO-31 17.7 µM | HCT-116 16.3 µM | NCI/ADR-RES 20.3 µM | OVCAR-8 16.3 µM | HL-60 12.7 µM | TK-10 15.2 µM | HOP-62 98.6 µM | HCC 2998 16.6 µM | RPMI-8226 22.8 µM | SNB-19 > 50.4 µM | SK-MEL-5 21.5 µM | CAKI-1 8.67 µM | T47D 24.3 µM | MDA-MB-435 18.7 µM | SNB-75 > 42.7 µM | K562 24 µM | KM12 29.6 µM | HOP-92 19 µM | Malme-3M 15.2 µM | MDA-MB-231 20.2 µM | SK-MEL-2 20.8 µM | HT-29 16.2 µM | Hs-578T 26.5 µM | OVCAR-5 23.4 µM | SF-268 26.1 µM | UACC-62 18.8 µM | OVCAR-4 19.5 µM | NCI-H226 7.67 µM | MCF7 17.1 µM | OVCAR-3 23.2 µM | PC-3 20.3 µM | 786-0 15.7 µM | COLO 205 7.94 µM | CCRF-CEM 2.83 µM | U-251 18.9 µM | NCI-H522 2.71 µM | NCI-H23 17.7 µM | UACC-257 22 µM | SK-MEL-28 18 µM | DU-145 38.8 µM
18.9 µM: HCT-15
